Values of other authors, collected in patent publication US5204349A, “Amide-substituted derivatives of spiroindanylcamphorsulfonyl oxytocin antagonists” (priority 1991, dated 1993).
Where two headings read alike, the source gives them in different places.

Tests used:
[1] = compared with ritodrine
[2] = tocolytic use, mother and infant

In the case of CCO [Ethanol], the “effectiveness in preventing premature labor” value [1] is given as “as effective as ritodrine in preventing premature labor” and the “reduction in the incidence of fetal respiratory distress” value [1] is given as “does not produce a corresponding reduction in the incidence of fetal respiratory distress that administration of ritodrine does”.

For CC(NCCc1ccc(O)cc1)C(O)c1ccc(O)cc1 (stereo not drawn) [Ritodrine], the side effects [2] is given as “causes a number of cardiovascular and metabolic side effects in the mother, including tachycardia, increased renin secretion, hyperglycemia (and reactive hypoglycemia in the infant)”.

In the case of O=S(=O)([O-])[O-].[Mg+2] [Magnesium sulfate], the “adverse effects at plasma concentrations above the therapeutic range” value (plasma concentrations above 4 to 8 mg/dL) is given as “can cause inhibition of cardiac conduction and neuromuscular transmission, respiratory depression and cardiac arrest”.

In the case of CC(C)(C)NCC(O)c1ccc(O)c(CO)c1 (stereo not drawn) [albuterol], the side effects (in vivo) is listed as “side effects similar to those of ritodrine”.

For CC(C)(C)NCC(O)c1cc(O)cc(O)c1 (stereo not drawn) [terbutaline], the side effects [2] is given as “side effects similar to those of ritodrine”.
